The results in this text go back to US20260364080A1, “PYRAZOLO-PYRIMIDINONE COMPOUNDS FOR USE IN METHODS OF INHIBITING WEE1 A KINASE” (Acrivon Therapeutics, Inc., priority 2023, published 2026).

Where only a bound is given, the exact number is not on record here.

Test [1] has as its target T1, recombinant human Wee1A kinase (Homo sapiens, UniProt P30291).
T1 construct: full length Wee1 kinase was expressed by baculovirus in insect cells; purchased Invitrogen PV3817; host or cells: insect cells (baculovirus)
Kind of test: Wee1A kinase binding assay (LanthaScreen Eu time-resolved FRET). The following applies: 30 nM tracer 178, 5 nM Wee1A kinase, 2 nM Eu-labeled antibody; 60 minutes at room temperature; read-out: Wee1A kinase Binding IC50. The essentials:
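Full-length, baculovirus-expressed GST-tagged Wee1A (5 nM) was mixed with 2 nM Eu-anti-GST antibody, 30 nM kinase tracer 178 and compound (1% DMSO). Buffer was 50 mM HEPES pH 7.5, 10 mM MgCl2, 1 mM EGTA, 0.01% Brij-35, incubated 60 min at room temperature. TR-FRET 665/615 nm emission ratios from duplicates were curve-fitted.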

Test [2] deals with T2, Myt1 kinase (recombinant PMYT-1) (Homo sapiens, UniProt Q99640).
T2 construct: full length PMYT-1 was expressed by baculovirus in insect cells; purchased Invitrogen A30984; host or cells: insect cells (baculovirus)
T2 sequence (Q99640 1-499): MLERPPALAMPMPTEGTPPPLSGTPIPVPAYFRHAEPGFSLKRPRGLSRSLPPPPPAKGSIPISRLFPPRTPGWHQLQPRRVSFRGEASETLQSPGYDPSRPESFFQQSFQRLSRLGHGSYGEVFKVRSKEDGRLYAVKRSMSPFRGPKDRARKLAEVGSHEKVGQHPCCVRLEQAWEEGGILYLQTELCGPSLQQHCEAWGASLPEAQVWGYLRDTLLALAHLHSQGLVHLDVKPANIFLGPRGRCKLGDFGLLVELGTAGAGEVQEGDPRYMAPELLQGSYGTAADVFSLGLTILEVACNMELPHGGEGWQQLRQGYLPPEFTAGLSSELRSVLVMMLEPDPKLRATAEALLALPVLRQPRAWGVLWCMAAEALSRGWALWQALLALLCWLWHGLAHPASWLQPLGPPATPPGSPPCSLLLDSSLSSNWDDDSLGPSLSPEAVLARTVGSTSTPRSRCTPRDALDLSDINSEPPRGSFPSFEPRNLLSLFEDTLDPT
Description: Myt1 kinase binding assay (LanthaScreen Eu Kinase Binding Assay). The note with it: 3 nM tracer 178, 2.5 nM PMYT-1, 1 nM Eu-labeled antibody; read-out: Myt1 kinase Binding IC50. Put shortly:
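Compound binding to Myt1 kinase was assessed using the LanthaScreen Eu Kinase Binding Assay. This europium-based binding format was applied to quantify how strongly each compound bound to the Myt1 enzyme, and the binding affinity was reported for each compound as an IC50 value.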
In general terms: TR-FRET usually uses a lanthanide donor and a delayed reading to cut background.

For test [3], the target named is T3, Myt1 kinase (CDK1 Thr14 phosphorylation in DAOY medulloblastoma cells) (Homo sapiens, UniProt Q99640).
T3 construct: pCDK1 Thr14 AlphaLISA read-out
T3 sequence (Q99640 1-499): T2 sequence (Q99640 1-499)
Description: AlphaLISA assay, Myt1 kinase target engagement (phospho-CDK1 Thr14) in DAOY cells. The test is classed as cell-based. The following applies: 4 h treatment, read-out: CDK1 Thr14 Phosphorylation EC50. Put shortly: (§1)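 Cells seeded at 10,000 (DAOY) or 20,000 (ACHN) per well, treated 24 h later for 4 h with compound at 7–5000 nM. Lysates analysed by AlphaLISA SureFire Ultra phospho-CDK1 (Thr14) with donor/acceptor beads; EC50 from dose-response curves.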

In test [4] the target is T4, Wee1A kinase (CDK1 Tyr15 phosphorylation in ACHN renal cell carcinoma cells) (Homo sapiens, UniProt P30291).
T4 construct: pCDK1 Tyr15 immunofluorescence read-out
T4 sequence (P30291 whole entry): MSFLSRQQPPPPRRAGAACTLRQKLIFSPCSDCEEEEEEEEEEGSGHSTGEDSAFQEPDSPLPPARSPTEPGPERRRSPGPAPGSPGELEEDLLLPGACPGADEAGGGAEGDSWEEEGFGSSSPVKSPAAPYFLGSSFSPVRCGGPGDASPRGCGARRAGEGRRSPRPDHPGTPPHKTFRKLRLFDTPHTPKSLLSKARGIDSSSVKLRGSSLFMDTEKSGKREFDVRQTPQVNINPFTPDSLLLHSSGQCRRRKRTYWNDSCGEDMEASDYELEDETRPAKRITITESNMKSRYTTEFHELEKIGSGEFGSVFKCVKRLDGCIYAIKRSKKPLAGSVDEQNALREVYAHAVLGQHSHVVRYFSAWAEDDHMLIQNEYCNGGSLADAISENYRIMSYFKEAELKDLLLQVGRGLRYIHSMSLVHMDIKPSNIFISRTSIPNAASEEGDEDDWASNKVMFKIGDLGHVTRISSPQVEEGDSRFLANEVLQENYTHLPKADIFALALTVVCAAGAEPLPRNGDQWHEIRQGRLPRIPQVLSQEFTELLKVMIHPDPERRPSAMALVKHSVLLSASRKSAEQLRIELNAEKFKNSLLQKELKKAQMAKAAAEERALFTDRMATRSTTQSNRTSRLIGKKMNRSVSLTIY
Description: High-content imaging of pCdk1 Y15, Wee1A kinase target engagement in ACHN cells. The test is classed as cell-based. The following applies: 4 h treatment, nuclear positivity for pCdk1 Y15 vs DMSO control, read-out: CDK1 Tyr15 Phosphorylation EC50. The essentials:
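EC50 values come from the per-well fraction of cells with nuclear pCdk1 Y15 staining, normalised to DMSO control, by automated immunofluorescence imaging. Cells were ACHN renal carcinoma, treated 4 h with compound at 7–5,000 nM or 0.3–200 nM.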

In test [5] the test system is ACHN cells. Description: Cell Titer Glo viability assay, ACHN cells. The format is cell-based. The following applies: Homo sapiens, 144 h, absolute EC50. The essentials:
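Cells grown in MEM with 10% FCS were seeded at 500 (A427), 400 (ACHN) or 250 (DAOY) per well and treated the next day with compound at 17 to 10 000 nM. Viability relative to untreated control was read at 144 h by CellTiter-Glo 2.0.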
Background: Cellular ATP, detected with luciferase, serves as a proxy for viable cell number.

For test [6], the system named is DAOY cells. Kind of test: Cell Titer Glo viability assay, DAOY cells. The format is cell-based. The following applies: Homo sapiens, 144 h, absolute EC50. The method, then: (§2) Each of an ACHN renal cell carcinoma cell line (ATCC) and a DAOY medulloblastoma cell line, and an A427 lung cancer line were cultured in Minimum Essential Medium Eagle supplemented with 10% fetal calf serum (Sigma), 1% Penicillin-Streptomycin and 10 mM HEPES buffer (HyClone). Cell cultures were kept in a humidified incubator at 37 °C and 5% CO2. Cells were routinely tested for Mycoplasma contamination.
(§3) ACHN cells, DAOY cells, or A427 cells were seeded at a density of 400, 250, or 500 cells per well respectively, in tissue culture treated 384 well plates (Corning Costar). After overnight incubation, cells were treated with drugs at concentrations ranging from 17 to 10 000 nM. Viability compared to untreated control was assessed at 144 h using Cell Titer Glo assay 2.0 (Promega). […] “NT” means the compounds was not tested in the indicated cells.

Test [7] relates to A427 cells. Kind of test: Cell Titer Glo viability assay, A427 cells. The test is classed as cell-based. The note with it: Homo sapiens, A-427, 144 h, absolute EC50. The method, then:
as §2, §3

Test [8] addresses T5, Myt1 kinase (CDK1 Thr14 phosphorylation in ACHN renal cell carcinoma cells) (Homo sapiens, UniProt Q99640).
T5 construct: pCDK1 Thr14 AlphaLISA read-out
T5 sequence (Q99640 1-499): T2 sequence (Q99640 1-499)
Description: AlphaLISA assay, Myt1 kinase target engagement (phospho-CDK1 Thr14) in ACHN cells. The note with it: ACHN cells (marked *); 4 h treatment. The test is classed as cell-based. The essentials:
as §1
Background: Alpha assays give light when donor and acceptor beads are brought close together.

T1 sequence (P30291 whole entry): as above

Take `C=CCn1c(=O)c2cnc(Nc3ccc(Cl)cc3)nc2n1-c1cccc(OC2CCN(C)CC2)n1` [Compound 142, 2-allyl-6-((4-chlorophenyl)amino)-1-(6-((1-methylpiperidin-4-yl)oxy)pyridin-2-yl)-1,2-dihydro-3H-pyrazolo[3,4-d]pyrimidin-3-one]: the IC50 (as a rule, the concentration that gives 50% inhibition) was less than 10 nM in test [1] and less than 20 nM in test [2]. Further, the half-maximal effective concentration (EC50) (commonly the concentration that produces a half-maximal response) in test [3] is 200 to 500 nM; in test [4] it was less than 100 nM; in test [5] it was no more than 100 nM; in test [6], 100 to 500 nM; in test [7], 100 to 500 nM.
`C=CCn1c(=O)c2cnc(Nc3cc(C)cc(F)c3)nc2n1-c1cccc(NC2CCN(C)CC2)n1` [Compound 161, 2-allyl-6-(3-fluoro-5-toluidino)-1-[6-(1-methyl-4-piperidylamino)-2-pyridyl]-1,2-dihydro-3H-1,2,5,7-tetraazainden-3-one]: the IC50 was less than 10 nM in test [1] and 100 to 500 nM in test [2]. The EC50 is less than 100 nM in test [4], no more than 100 nM in test [5] and 100 to 500 nM in test [7].
For the compound `C=CCn1c(=O)c2cnc(Nc3cnn(C)c3)nc2n1-c1cccc(OC2CCN(C)CC2)n1` [Compound 137, 2-allyl-1-[6-(1-methyl-4-piperidyloxy)-2-pyridyl]-6-(1-methyl-4-pyrazolylamino)-1,2-dihydro-3H-1,2,5,7-tetraazainden-3-one], the half-inhibitory concentration (IC50) in test [1] was less than 10 nM; in test [2], 20 to 100 nM. In addition, the half-maximal effective concentration (EC50) was less than 100 nM in test [4], no more than 100 nM in test [5] and no more than 100 nM in test [7].
As for `C=CCn1c(=O)c2cnc(Nc3ccc4c(ccn4C)c3)nc2n1-c1cccc(OC2CCN(C)CC2)n1` [Compound 186, 2-allyl-6-((1-methyl-1H-indol-5-yl)amino)-1-(6-((1-methylpiperidin-4-yl)oxy)pyridin-2-yl)-1,2-dihydro-3H-pyrazolo[3,4-d]pyrimidin-3-one], the values for the IC50 in test [1] and in test [2] were less than 10 nM and 20 to 100 nM, respectively. The EC50 in test [8] was 200 to 500 nM; in test [4] it was less than 100 nM; in test [5], no more than 100 nM; in test [6], no more than 100 nM.
`C=CCn1c(=O)c2cnc(Nc3ccc4c(cnn4C)c3)nc2n1-c1cccc(OC2CCN(C)CC2)n1` [Compound 109, 2-allyl-6-(1-methyl-1H-indazol-5-ylamino)-1-[6-(1-methyl-4-piperidyloxy)-2-pyridyl]-1,2-dihydro-3H-1,2,5,7-tetraazainden-3-one]: the concentration for half-maximal inhibition (IC50) in test [1] is less than 10 nM; in test [2], less than 20 nM. For the same compound, the 50% effective concentration (EC50) was less than 200 nM in test [3]; less than 100 nM in test [4]; no more than 100 nM in test [5]; no more than 100 nM in test [6]; no more than 100 nM in test [7].
In the case of `C=CCn1c(=O)c2cnc(Nc3cccc(C)c3)nc2n1-c1cccc(OC2CCNCC2)n1` [Compound 296, 2-allyl-1-(6-(piperidin-4-yloxy)pyridin-2-yl)-6-(m-tolylamino)-1,2-dihydro-3H-pyrazolo[3,4-d]pyrimidin-3-one], the concentration for half-maximal inhibition (IC50) in test [1] was less than 10 nM; in test [2], 20 to 100 nM. Also, the EC50 in test [3] was 200 to 500 nM; in test [4], less than 100 nM; in test [5], no more than 100 nM; in test [6], no more than 100 nM; in test [7] it was no more than 100 nM.
`C=CCn1c(=O)c2cnc(Nc3ccc(OCCF)cc3)nc2n1-c1cccc(OC2CCNCC2)n1` [Compound 233, 2-allyl-6-((4-(2-fluoroethoxy)phenyl)amino)-1-(6-(piperidin-4-yloxy)pyridin-2-yl)-1,2-dihydro-3H-pyrazolo[3,4-d]pyrimidin-3-one]: the results for the IC50 in test [1] and in test [2] were less than 10 nM and 20 to 100 nM, respectively. The EC50 was 200 to 500 nM in test [3]; less than 100 nM in test [4]; no more than 100 nM in test [5]; no more than 100 nM in test [6]; no more than 100 nM in test [7].
As for `C=CCn1c(=O)c2cnc(Nc3ccc(OCC(F)(F)F)cc3)nc2n1-c1cccc(OC2CCN(C)CC2)n1` [Compound 291, 2-allyl-1-[6-(1-methyl-4-piperidyloxy)-2-pyridyl]-6-[p-(2,2,2-trifluoroethoxy)phenylamino]-1,2-dihydro-3H-1,2,5,7-tetraazainden-3-one], the IC50 in test [1] was less than 10 nM; in test [2] it was 20 to 100 nM. In addition, the concentration for a half-maximal effect (EC50) in test [3] was 200 to 500 nM; in test [4], less than 100 nM; in test [5] it was no more than 100 nM; in test [6], no more than 100 nM; in test [7] it was no more than 100 nM.
As for `C=CCn1c(=O)c2cnc(Nc3ccc(OCCF)cc3)nc2n1-c1cccc(OC2CCN(C)CC2)n1` [Compound 234, 2-allyl-6-((4-(2-fluoroethoxy)phenyl)amino)-1-(6-((1-methylpiperidin-4-yl)oxy)pyridin-2-yl)-1,2-dihydro-3H-pyrazolo[3,4-d]pyrimidin-3-one], the 50% inhibitory concentration (IC50) in test [1] is less than 10 nM; in test [2], 20 to 100 nM. For the same compound, the concentration giving a half-maximal response (EC50) was less than 200 nM in test [3]; less than 100 nM in test [4]; no more than 100 nM in test [5]; no more than 100 nM in test [6]; no more than 100 nM in test [7].
`C=CCn1c(=O)c2cnc(Nc3cccc(C)c3)nc2n1-c1cccc(OC2CCN(C)CC2)n1` [Compound 191, 2-allyl-1-[6-(1-methyl-4-piperidyloxy)-2-pyridyl]-6-m-toluidino-1,2-dihydro-3H-1,2,5,7-tetraazainden-3-one]: the IC50 in test [1] was less than 10 nM; in test [2] it was less than 20 nM. For the same compound, the 50% effective concentration (EC50) in test [3] is 200 to 500 nM; in test [4], less than 100 nM; in test [5], no more than 100 nM; in test [6] it was no more than 100 nM.
As for `C=CCn1c(=O)c2cnc(Nc3ccc4ccoc4c3)nc2n1-c1cccc(OC2CCN(C)CC2)n1` [Compound 308, 2-allyl-6-(1-benzofuran-6-ylamino)-1-[6-(1-methyl-4-piperidyloxy)-2-pyridyl]-1,2-dihydro-3H-1,2,5,7-tetraazainden-3-one], the IC50 in test [1] is less than 10 nM; in test [2], less than 20 nM. In addition, the EC50 was less than 200 nM in test [3], less than 100 nM in test [4], no more than 100 nM in test [5] and no more than 100 nM in test [6].
